Activity calls are given as the source filed them. The rule behind the calls is not given here.
Test system: CCRIS mutagenicity, Ames/micronucleus/aberration tests
Assay: CCRIS mutagenicity studies
[1] = Test System: AMES SALMONELLA TYPHIMURIUM, Strain/Indicator: TA98, Metabolic Activation: HAMSTER, LIVER, S-9, AROCLOR 1254, Method: STANDARD PLATE
[2] = Test System: AMES SALMONELLA TYPHIMURIUM, Strain/Indicator: TA98, Metabolic Activation: NONE, Method: STANDARD PLATE
[3] = Test System: AMES SALMONELLA TYPHIMURIUM, Strain/Indicator: TA98, Metabolic Activation: RAT, LIVER, S-9, AROCLOR 1254, Method: STANDARD PLATE
[4] = Test System: AMES SALMONELLA TYPHIMURIUM, Strain/Indicator: TA100, Metabolic Activation: HAMSTER, LIVER, S-9, AROCLOR 1254, Method: STANDARD PLATE
[5] = Test System: AMES SALMONELLA TYPHIMURIUM, Strain/Indicator: TA100, Metabolic Activation: NONE, Method: STANDARD PLATE
[6] = Test System: AMES SALMONELLA TYPHIMURIUM, Strain/Indicator: TA100, Metabolic Activation: RAT, LIVER, S-9, AROCLOR 1254, Method: STANDARD PLATE
[7] = Test System: AMES SALMONELLA TYPHIMURIUM, Strain/Indicator: TA1535, Metabolic Activation: HAMSTER, LIVER, S-9, AROCLOR 1254, Method: STANDARD PLATE
[8] = Test System: AMES SALMONELLA TYPHIMURIUM, Strain/Indicator: TA1535, Metabolic Activation: NONE, Method: STANDARD PLATE
[9] = Test System: AMES SALMONELLA TYPHIMURIUM, Strain/Indicator: TA1535, Metabolic Activation: RAT, LIVER, S-9, AROCLOR 1254, Method: STANDARD PLATE
[10] = Test System: AMES SALMONELLA TYPHIMURIUM, Strain/Indicator: TA1537, Metabolic Activation: HAMSTER, LIVER, S-9, AROCLOR 1254, Method: STANDARD PLATE
[11] = Test System: AMES SALMONELLA TYPHIMURIUM, Strain/Indicator: TA1537, Metabolic Activation: NONE, Method: STANDARD PLATE
[12] = Test System: AMES SALMONELLA TYPHIMURIUM, Strain/Indicator: TA1537, Metabolic Activation: RAT, LIVER, S-9, AROCLOR 1254, Method: STANDARD PLATE
[13] = Test System: MOUSE LYMPHOMA, Strain/Indicator: L5178Y (TK+/TK-), Metabolic Activation: NONE, Method: SUSPENSION/PLATE
[14] = Test System: MOUSE LYMPHOMA, Strain/Indicator: L5178Y (TK+/TK-), Metabolic Activation: RAT, LIVER, S-9, AROCLOR 1254, Method: SUSPENSION/PLATE
[15] = Test System: AMES SALMONELLA TYPHIMURIUM, Strain/Indicator: TA98, Metabolic Activation: NONE, Method: PREINCUBATION
[16] = Test System: AMES SALMONELLA TYPHIMURIUM, Strain/Indicator: TA98, Metabolic Activation: RAT, LIVER, S-9, KANECHLOR 500, Method: PREINCUBATION
[17] = Test System: AMES SALMONELLA TYPHIMURIUM, Strain/Indicator: TA100, Metabolic Activation: NONE, Method: PREINCUBATION

Q: Which results are given for `CCOc1ccccc1C(N)=O`?
A: mutagenic call (End Point: IN VITRO CHROMOSOMAL ABERRATIONS, Test System: CHL/IU CELLS, Metabolic Activation: NONE): active; positive (structural changes); mutagenic call (End Point: IN VITRO MICRONUCLEUS, Test System: CHL/IU CELLS, Metabolic Activation: NONE): active; positive

Q: What does the source list for `O=C(/C=C/c1ccc(O)c(O)c1)O[C@@H]1C[C@](O)(C(=O)O)C[C@@H](O)[C@H]1O`?
A: mutagenic call [1]: inactive; negative; mutagenic call [2]: inactive; negative; mutagenic call [3]: inactive; negative; mutagenic call [4]: inactive; negative; mutagenic call [5]: inactive; negative; mutagenic call [6]: inactive; negative; mutagenic call [7]: inactive; negative; mutagenic call [8]: inactive; negative; mutagenic call [9]: inactive; negative; mutagenic call [10]: inactive; negative; mutagenic call [11]: inactive; negative; mutagenic call [12]: inactive; negative; mutagenic call (Test System: AMES SALMONELLA TYPHIMURIUM, Strain/Indicator: TA1538, Metabolic Activation: HAMSTER, LIVER, S-9, AROCLOR 1254, Method: STANDARD PLATE): inactive; negative; mutagenic call (Test System: AMES SALMONELLA TYPHIMURIUM, Strain/Indicator: TA1538, Metabolic Activation: NONE, Method: STANDARD PLATE): inactive; negative; mutagenic call (Test System: AMES SALMONELLA TYPHIMURIUM, Strain/Indicator: TA1538, Metabolic Activation: RAT, LIVER, S-9, AROCLOR 1254, Method: STANDARD PLATE): inactive; negative; mutagenic call [13]: inactive; negative. reevaluation of results: negative; mutagenic call [14]: active; positive. reevaluation of results: positive

Q: `N=C1C=CC(=C(c2ccc(N)cc2)c2ccc(N)cc2)C=C1` was tested. Which mutagenic call (End Point: IN VITRO CHROMOSOMAL ABERRATIONS, Test System: CHO CELLS, Metabolic Activation: NONE) did it give?
A: inactive; negative

Q: What about the mutagenic call (End Point: IN VITRO CHROMOSOMAL ABERRATIONS, Test System: CHO CELLS, Metabolic Activation: RAT, LIVER, S-9, AROCLOR 1254) of the same molecule?
A: inactive; negative

Q: What about the mutagenic call (Test System: AMES SALMONELLA TYPHIMURIUM, Strain/Indicator: TA97, Metabolic Activation: NONE, Method: STANDARD PLATE) of the same molecule?
A: inactive; negative

Q: What about the mutagenic call (Test System: AMES SALMONELLA TYPHIMURIUM, Strain/Indicator: TA97, Metabolic Activation: RAT, LIVER, S-9, AROCLOR 1254, Method: STANDARD PLATE) of the same molecule?
A: active; positive

Q: What about the mutagenic call (Test System: AMES SALMONELLA TYPHIMURIUM, Strain/Indicator: TA97A, Metabolic Activation: NONE, Method: STANDARD PLATE) of the same molecule?
A: inactive; negative

Q: What about the mutagenic call (Test System: AMES SALMONELLA TYPHIMURIUM, Strain/Indicator: TA97A, Metabolic Activation: RAT, LIVER, S-9, AROCLOR 1254, Method: STANDARD PLATE) of the same molecule?
A: inactive; negative

Q: What about the mutagenic call [1] of the same molecule?
A: active; positive

Q: And the mutagenic call [2]?
A: active; positive

Q: And the mutagenic call [3]?
A: active; positive

Q: What about the mutagenic call [4] of the same molecule?
A: active; positive

Q: And the mutagenic call [5]?
A: active; positive

Q: What about the mutagenic call [6] of the same molecule?
A: active; positive

Q: And the mutagenic call [7]?
A: inactive; negative

Q: And the mutagenic call [8]?
A: inactive; negative

Q: What about the mutagenic call [9] of the same molecule?
A: inactive; negative

Q: What about the mutagenic call [10] of the same molecule?
A: inactive; negative

Q: And the mutagenic call [11]?
A: inactive; negative

Q: And the mutagenic call [12]?
A: inactive; negative

Q: And the mutagenic call (Test System: E. COLI, Strain/Indicator: WP2 UVRA, Metabolic Activation: HAMSTER, LIVER, S-9, AROCLOR 1254, Method: STANDARD PLATE)?
A: inactive; negative

Q: What about the mutagenic call (Test System: E. COLI, Strain/Indicator: WP2 UVRA, Metabolic Activation: HAMSTER, LIVER, S-9, Method: STANDARD PLATE) of the same molecule?
A: inactive; negative

Q: And the mutagenic call (Test System: E. COLI, Strain/Indicator: WP2 UVRA, Metabolic Activation: MOUSE, LIVER, S-9, AROCLOR 1254, Method: STANDARD PLATE)?
A: inactive; negative

Q: And the mutagenic call (Test System: E. COLI, Strain/Indicator: WP2 UVRA, Metabolic Activation: MOUSE, LIVER, S-9, Method: STANDARD PLATE)?
A: inactive; negative

Q: And the mutagenic call (Test System: E. COLI, Strain/Indicator: WP2 UVRA, Metabolic Activation: NONE, Method: STANDARD PLATE)?
A: inactive; negative

Q: And the mutagenic call (Test System: E. COLI, Strain/Indicator: WP2 UVRA, Metabolic Activation: RAT, LIVER, S-9, AROCLOR 1254, Method: STANDARD PLATE)?
A: inactive; negative

Q: What about the mutagenic call (Test System: E. COLI, Strain/Indicator: WP2 UVRA, Metabolic Activation: RAT, LIVER, S-9, Method: STANDARD PLATE) of the same molecule?
A: inactive; negative

Q: What about the mutagenic call [13] of the same molecule?
A: active; positive

Q: And the mutagenic call [14]?
A: active; positive

Q: Which mutagenic call (Test System: AMES SALMONELLA TYPHIMURIUM, Strain/Indicator: TA97, Metabolic Activation: RAT, LIVER, S-9, PHENOBARBITAL AND 5,6-BENZOFLAVONE, Method: PREINCUBATION) does the source give for `COc1ccc2oc3cc(O)cc(O)c3c(=O)c2c1` here?
A: active; positive

Q: What about the mutagenic call (Test System: AMES SALMONELLA TYPHIMURIUM, Strain/Indicator: TA98, Metabolic Activation: RAT, LIVER, S-9, PHENOBARBITAL AND 5,6-BENZOFLAVONE, Method: PREINCUBATION) of the same molecule?
A: active; positive

Q: And the mutagenic call (Test System: AMES SALMONELLA TYPHIMURIUM, Strain/Indicator: TA100, Metabolic Activation: RAT, LIVER, S-9, PHENOBARBITAL AND 5,6-BENZOFLAVONE, Method: PREINCUBATION)?
A: active; positive

Q: What about the mutagenic call (Test System: AMES SALMONELLA TYPHIMURIUM, Strain/Indicator: TA2637, Metabolic Activation: RAT, LIVER, S-9, PHENOBARBITAL AND 5,6-BENZOFLAVONE, Method: PREINCUBATION) of the same molecule?
A: active; positive

Q: Which results are given for `Nc1cc([N+](=O)[O-])c(-c2ccccc2)c([N+](=O)[O-])c1`?
A: mutagenic call [15]: inactive; negative; mutagenic call [16]: active; positive

Q: Which mutagenic call (Test System: Ames Salmonella typhimurium, Strain/Indicator: TA97, Metabolic Activation: None, Method: Preincubation) does the source give for `Nc1ccc(O)c2c1C(O)=CC(=O)C2=O` here?
A: inactive; negative

Q: What about the mutagenic call (Test System: Ames Salmonella typhimurium, Strain/Indicator: TA97, Metabolic Activation: Rat, Liver, S9, Aroclor 1254, Method: Preincubation) of the same molecule?
A: inactive; negative

Q: And the mutagenic call (Test System: Ames Salmonella typhimurium, Strain/Indicator: TA98, Metabolic Activation: None, Method: Preincubation)?
A: active; positive

Q: What about the mutagenic call (Test System: Ames Salmonella typhimurium, Strain/Indicator: TA98, Metabolic Activation: Rat, Liver, S9, Aroclor 1254, Method: Preincubation) of the same molecule?
A: inactive; negative

Q: What about the mutagenic call (Test System: Ames Salmonella typhimurium, Strain/Indicator: TA100, Metabolic Activation: None, Method: Preincubation) of the same molecule?
A: inactive; negative

Q: And the mutagenic call (Test System: Ames Salmonella typhimurium, Strain/Indicator: TA100, Metabolic Activation: Rat, Liver, S9, Aroclor 1254, Method: Preincubation)?
A: inactive; negative

Q: And the mutagenic call (Test System: Ames Salmonella typhimurium, Strain/Indicator: TA102, Metabolic Activation: None, Method: Preincubation)?
A: inactive; negative

Q: And the mutagenic call (Test System: Ames Salmonella typhimurium, Strain/Indicator: TA102, Metabolic Activation: Rat, Liver, S9, Aroclor 1254, Method: Preincubation)?
A: active; positive

Q: For `Cc1cc2ccccc2c2ccc3c(c12)[C@H]1O[C@H]1[C@@H](O)[C@@H]3O`, which mutagenic call [17] is on record?
A: active; positive

Q: For `CC(=O)Nc1ccc2cccnc2c1`, which mutagenic call [15] is on record?
A: inactive; negative

Q: What about the mutagenic call [16] of the same molecule?
A: active; positive

Q: And the mutagenic call [17]?
A: inactive; negative

Q: And the mutagenic call (Test System: AMES SALMONELLA TYPHIMURIUM, Strain/Indicator: TA100, Metabolic Activation: RAT, LIVER, S-9, KANECHLOR 500, Method: PREINCUBATION)?
A: active; positive

Q: Which results are given for `O=C(O)/C=C(\CCl)C(Cl)Cl`?
A: mutagenic call [15]: inactive; negative; mutagenic call [17]: active; positive; mutagenic call (Test System: AMES SALMONELLA TYPHIMURIUM, Strain/Indicator: TA104, Metabolic Activation: NONE, Method: PREINCUBATION): inactive; negative
